The source of these data is patent US9845482B2, “Compositions and methods for enhancing bioenergetic status in female germ cells” (The General Hospital Corporation, priority 2011, dated 2017).

One assay has as its system OSCs from mice. The assay can be described thus: Screen of mouse OSCs for compounds that enhance mitochondrial function (mtDNA, ATP, mitochondrial mass, membrane potential, gene expression). The class given is cell-based. The note with it: 24 hours; for activity above the baseline (DMSO alone), scored as a positive result: 25 or 50 μM (berberine 5 μM and 25 μM). The source says: Female infertility due to chemotherapy, aging and premature ovarian failure (POF) is due in part to a decline in mitochondrial function in oocytes and OSCs. Accordingly, OSCs from mice were used to screen for small compounds that enhance mitochondrial function (“bioenergetic status”) in female germline cells. Assays for enhancing mitochondrial function included mtDNA content, ATP, NAD+/NADH, mitochondrial mass, mitochondrial membrane potential, and gene expression of known mitochondrial mass regulators and electron transport chain components.
All the compounds were dissolved in DMSO. For screening purposes the cells were treated with the vehicle (0.001% DMSO) or with 25 or 50 μM of each compound (except for berberine, which the concentrations used for the screen were 5 μM and 25 μM) for 24 hours. For validation of the top 6 hits, cells were treated with vehicle (0.001% DMSO) or either 5 or 25 μM of each compound for 24 hours. For the gene expression profile, the cells were treated with the concentration that was considered to work better in the previous validation assays.
Mitochondrial membrane potential was measured with a fluorescent probe, Tetramethylrhodamine methyl ester (TMRM) (Sigma) as described before (Rolo A. P. Biochim. Biophys. Acta 2003 1637: 127-132). Briefly the cells were loaded with 6.6 μM TMRM in HBSS buffer at 37° C. for 15 minutes in the dark. The supernatant was then aspirated, and the cells returned to the original volume with KHH. TMRM is a membrane-permeable cationic fluorophore that accumulates electrophoretically in mitochondria in proportion to their mitochondrial membrane potential (Ehrenberg B. V. et al. Biophys. J. 1988 53:785-794). Cell suspensions (200 μl containing 10^5 cells) were loaded into 96-well plates and fluorescence measured using excitation and emission wavelengths of 485 and 590 nm, respectively. Mitochondrial membrane potential was estimated, taking into account the complete depolarization caused by carbonyl cyanide p-(trifluoromethoxy)phenylhydrazone (FCCP).
For mtDNA analysis, total DNA was extracted with DNeasy blood and tissue kit (QIAGEN). mtDNA was amplified using primers specific for the mitochondrial cytochrome c oxidase subunit 2 (COX2) gene and normalized to genomic DNA by amplification of the ribosomal protein s18 (rps18) nuclear gene. Primers were designed using the IDT software (IDT).
ATP content was measured using a luciferase-based assay with a commercial kit according to the manufacturer's instructions (Roche Applied Science, Penzberg, Germany) and normalized to protein content in each sample.
Mitochondrial mass was evaluated using the fluorescent probe N-nonyl acridine orange (NAO), briefly the cells were incubated in culture media containing 10 nM of NAO for 30 minutes at 37° C. in the dark. The cells were then trypsinized and resuspended in culture media without NAO. The NAO fluorescence intensity was then determined by flow cytometry on the FACSCALIBUR® (BD Biosciences, San Jose, Calif., USA) using the 488 nm laser.
For gene expression analysis, RNA from skeletal muscle tissue and C2C12 cells were extracted with RNeasy mini kit (QIAGEN) according to the instructions and quantified using the NanoDrop 1000 spectrophotometer (Thermo Scientific). cDNA was synthesized with the iSCRIP cDNA synthesis kit (BioRad) using 200 ng of RNA. Quantitative RT-PCR reactions were performed using 1 μM of primers and LIGHTCYCLER® 480 SYBR® Green Master (Roche Applied Science, Penzberg, Germany) on an LIGHTCYCLER® 480 detection system (Roche Applied Science, Penzberg, Germany). Calculations were performed by a comparative method (2-ΔΔCT) using actin as an internal control. Primers were designed using the IDT software (IDT).

Assay [1] concerns oocytes of aged female mice (C57BL/6). The assay can be described thus: Dietary supplementation of aged female mice: mitochondrial distribution in oocytes. The class given is in vivo. The settings on record: for percentage of oocytes exhibiting abnormal mitochondrial clustering (change): compared to Hist 12 M; for abnormal mitochondrial distribution, present in % of oocytes: diet for 3 months, apigenin 0.5 g/kg, luteolin 0.5 g/kg, SRT-1720 2 g/kg. On the procedure:
Whether mitochondrial aggregation, which has been linked to the decline in oocyte quality with advancing age (Tarín et al. Biol Reprod 2001 65:141-150), was affected by caloric intake was assessed. Oocytes were denuded of cumulus cells, incubated in MitoTracker Red CMRox (Life Technologies), and processed for microscopic analysis. Levels of ATP in individual MII oocytes were determined using a commercially available bioluminescent assay kit under the manufacturer's specifications (Sigma Aldrich Corporation, St. Louis, Mo., USA).
(§1) Female mice (8 months old, strain C57BL/6) were maintained on a 12:12 light dark cycle and provided ad-libitum access to water and food. Conditions within rooms were maintained at 21°±1° C. with 50%±20% relative humidity. Mice were placed on the experimental diets at 8.5 months of age and were maintained for 3 months on the diets. All diets were custom made, ordered from Research Diets: OpenStandard Diet (20 kcal % Protein, 15 kcal % Fat and 65 kcal % Carbohydrate) and the experimental groups consisted of regular OpenStandard Diet, OpenStandard Diet+Apigenin at 0.5 g/kg of body weight, OpenStandard Diet+Luteolin at 0.5 g/kg, and OpenStandard Diet+SRT-1720 at 2 g/kg. Food intake was measured weekly and average weight gain was assessed every two weeks. Each experimental group consisted of 12 randomly allocated mice. When mice were euthanized an additional group of 3-month old C57BL/6 females (3 M) were used as positive controls. In all groups, oocyte numbers were assessed following hormonal stimulation for superovulation.
(§2) Methods for determining spindle abnormalities and chromosomal misalignment are described above in Example 8. Abnormal mitochondrial distribution was determined to be present in 16.13% of oocytes from 3 M mice, 46% of oocytes from Hist 12 M mice, 7.7% of oocytes following supplementation with apigenenin, 12% of oocytes following supplementation with luteolin and 6.9% of oocytes following supplementation with SRT-1720. Spindle abnormalities were determined to be present in 18.3% of oocytes in 3 M mice, 60% of oocytes in Hist 12 M mice, 32% of oocytes following supplementation with apigenenin, 32% of oocytes following supplementation with luteolin and 32.8% of oocytes following supplementation with SRT-1720. Chromosomal misalignment was determined to be present 18.3% of oocytes in 3 M mice, 62% of oocytes in Hist 12 M mice, 44% of oocytes from mice supplemented with apigenenin, 40% of oocytes following supplementation with luteolin and 40.9% of oocytes following supplementation with SRT-1720.

For assay [2], the system named is MII oocytes of aged female mice (C57BL/6). The assay can be described thus: Dietary supplementation of aged female mice: spindle abnormalities and chromosomal misalignment in MII oocytes. It is filed as in vivo. The note with it: for chromosomal misalignment in MII oocytes (change) / percentage of spindle abnormalities in MII oocytes (change): compared to Hist 12 M; for chromosomal misalignment, present in % of oocytes / spindle abnormalities, present in % of oocytes: diet for 3 months, apigenin 0.5 g/kg, luteolin 0.5 g/kg, SRT-1720 2 g/kg. Here is the method:
Confocal analysis of α-tubulin and DNA distribution were examined. Superovulated oocytes were denuded of cumulus cells, briefly incubated in Acidified Tyrode's Solution (Irvine Scientific, Santa Ana, Calif., USA) to soften the zona pellucida, and immunostained using mouse anti-α-tubulin antibody (Sigma Aldrich Corporation, St. Louis, Mo., USA) followed by goat anti-mouse IgG conjugated with Alexa Fluor-488 (Life Technologies, Carlsbad, Calif.). Oocytes were mounted using Vectashield containing propidium iodide (PI; Vector Laboratories) and analyzed by confocal microscopy.
as §1, §2

With `O=c1cc(-c2ccc(O)cc2)oc2cc(O)cc(O)c12` [apigenin, 5,7-Dihydroxy-2-(4-hydroxyphenyl)-4H-1-benzopyran-4-one], in the assay on OSCs from mice, the mitochondrial parameters result is “increase mitochondrial parameters in a beneficial way” and the “activity above the baseline (DMSO alone), scored as a positive result” value (from here on “activity above the baseline (DMSO alone)”) is on record as “activity above the baseline”. In assay [1], the “percentage of oocytes exhibiting abnormal mitochondrial clustering (change)” value is listed as “reduced” and the “abnormal mitochondrial distribution, present in % of oocytes” value is 7.7%. Besides, in assay [2], the “chromosomal misalignment in MII oocytes (change)” value is “reduced chromosomal misalignment”; the “percentage of spindle abnormalities in MII oocytes (change)” value is recorded as “reduced percentage of spindle abnormalities”; the “chromosomal misalignment, present in % of oocytes” value is listed as 44%; the “spindle abnormalities, present in % of oocytes” value is listed as 32%.
As for `O=c1cc(-c2ccc(O)c(O)c2)oc2cc(O)cc(O)c12` [luteolin, 2-(3,4-Dihydroxyphenyl)-5,7-dihydroxy-4-chromenone], in the assay with OSCs from mice, the mitochondrial parameters result is given as “increase mitochondrial parameters in a beneficial way” and the “activity above the baseline (DMSO alone)” value is “activity above the baseline”. In assay [1], the “percentage of oocytes exhibiting abnormal mitochondrial clustering (change)” value is recorded as “reduced” and the “abnormal mitochondrial distribution, present in % of oocytes” value stood at 12%. For the same compound, in assay [2], the “chromosomal misalignment in MII oocytes (change)” value is reported as “reduced chromosomal misalignment”; the “percentage of spindle abnormalities in MII oocytes (change)” value is “reduced percentage of spindle abnormalities”; the “chromosomal misalignment, present in % of oocytes” value is listed as 40%; the “spindle abnormalities, present in % of oocytes” value worked out at 32%.
Consider `O=C(Nc1ccccc1-c1cn2c(CN3CCNCC3)csc2n1)c1cnc2ccccc2n1` [SRT-1720, N-[2[3-(piperazin-1-ylmethyl)imidazo[2,1-b][1,3]thiazol-6-yl]phenyl]quinoxaline-2-carboxamide], for which, in the assay with OSCs from mice, the mitochondrial parameters entry is recorded as “increase mitochondrial parameters in a beneficial way” and the “activity above the baseline (DMSO alone)” value is “activity above the baseline”. In addition, in assay [1], the “percentage of oocytes exhibiting abnormal mitochondrial clustering (change)” value is listed as “reduced” and the “abnormal mitochondrial distribution, present in % of oocytes” value stood at 6.9%. Besides, in assay [2], the “chromosomal misalignment in MII oocytes (change)” value is recorded as “reduced chromosomal misalignment”; the “percentage of spindle abnormalities in MII oocytes (change)” value is listed as “reduced percentage of spindle abnormalities”; the “chromosomal misalignment, present in % of oocytes” value came to 40.9%; the “spindle abnormalities, present in % of oocytes” value is 32.8%.
